Data reported in paper PMC6992764 (Nature Communications, 2020).

Key:
[1] = tested on: B16 tumor cells; experiment: B16 tumor cell growth (WST-1 assay); assay type: cell-based; details: B16, 48 h
Method: (§1) To evaluate the effects of compounds on cell growth, cells were incubated with inhibitors for 48 h, then WST-1 (Dojindo) was added to the culture for the final 30 min. An Envision instrument (PerkinElmer) was used to measure the absorbance of each well at 450 nm versus a 650-nm reference to detect the amount of formazan produced from WST-1 by mitochondrial dehydrogenases in viable cells.

[2] = tested on: LLC tumor cells; experiment: LLC tumor cell growth (WST-1 assay); assay type: cell-based; details: 48 h
Method: as §1

[3] = tested on: LLC tumor cells
[4] = tested on: B16 tumor cells
[5] = target: T1, CRBD of FROUNT (a.a. 532-656) bearing the L538E/P612S mutations (Homo sapiens, UniProt Q9BW27, L538E/P612S); experiment: NMR titration (1H-15N HSQC) of CRBD of FROUNT; assay type: binding; details: 12.5-50 µM compound, 50 µM CRBD
T1 construct: 50 µM CRBD of FROUNT (a.a. 532–656) bearing the L538E/P612S mutations or its mutant (C603S); made in house
T1 sequence (Q9BW27 532-656 L538E/P612S): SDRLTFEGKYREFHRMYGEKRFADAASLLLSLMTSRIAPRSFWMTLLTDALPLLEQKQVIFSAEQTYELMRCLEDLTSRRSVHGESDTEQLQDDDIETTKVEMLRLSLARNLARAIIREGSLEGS
Method: All ^1H–^15N heteronuclear single quantum correlation (HSQC) NMR spectra were measured at 25 °C on a Bruker 600-MHz AVANCE III spectrometer with a cryogenic probe. […] The assignments of the backbone ^1H^N and ^15N NMR signals of CRBD were performed, based on the previous paper. […] Combined chemical shift differences Δδ was calculated by Δδ = [(ΔδHN)^2 + (ΔδN/6.5)^2]^1/2, where ΔδHN and ΔδN are the chemical shift differences for ^1H^N and ^15N, respectively.

[6] = target: T2, Full-length FROUNT protein (Homo sapiens, UniProt Q9BW27); experiment: Surface plasmon resonance binding to FROUNT; details: SPR, concentration-dependent
T2 construct: made in house
T2 sequence (Q9BW27 1-656): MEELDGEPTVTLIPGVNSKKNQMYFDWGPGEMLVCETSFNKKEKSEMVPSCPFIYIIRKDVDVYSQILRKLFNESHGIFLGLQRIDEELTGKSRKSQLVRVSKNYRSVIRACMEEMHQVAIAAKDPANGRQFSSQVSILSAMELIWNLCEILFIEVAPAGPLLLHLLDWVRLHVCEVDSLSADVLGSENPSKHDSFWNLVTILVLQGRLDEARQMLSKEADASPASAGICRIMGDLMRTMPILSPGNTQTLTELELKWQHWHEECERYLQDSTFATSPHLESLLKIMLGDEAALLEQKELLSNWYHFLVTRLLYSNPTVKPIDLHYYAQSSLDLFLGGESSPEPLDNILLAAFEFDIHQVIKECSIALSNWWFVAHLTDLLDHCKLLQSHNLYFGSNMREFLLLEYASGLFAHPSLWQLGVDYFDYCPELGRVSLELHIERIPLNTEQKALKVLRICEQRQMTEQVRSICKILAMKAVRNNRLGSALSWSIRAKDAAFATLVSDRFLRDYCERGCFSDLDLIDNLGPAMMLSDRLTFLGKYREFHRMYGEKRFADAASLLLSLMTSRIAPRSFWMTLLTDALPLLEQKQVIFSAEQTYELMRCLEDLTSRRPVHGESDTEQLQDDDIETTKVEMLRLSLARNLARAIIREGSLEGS
Method: Interactions between FROUNT and library compounds were analyzed by surface plasmon resonance using a Biacore T100 (GE Healthcare). Full-length FROUNT protein or the FROUNT-binding region of CCR2 was immobilized on the CM5 sensor chip[56]. […] The resonance unit (RU) was measured during the binding and washing periods, and the binding kinetics were analyzed. Solvent correction with DMSO was performed using Biacore T100 evaluation software.

[7] = tested on: THP-1 cells; experiment: Chemotaxis inhibition assay (chemoTX chamber, CCL2); assay type: cell-based, human; details: towards CCL2, 90 min
Method: Chemotaxis was measured in a 96-well chemoTX chemotaxis chamber with a polycarbonate filter (5-μm pore size) (Neuro probe). Human CCL2 (R&D Systems) was added to the lower chamber of the plate and the cells were added to the upper chamber. After incubation at 37 °C and 5% CO2 for 90 min, the filter was removed and the number of migrated cells in the lower chamber was counted using a cell counting kit F (Dojindo). Data are expressed as migration efficiency (percentage of the maximal migration).

[8] = target: T3, FROUNT-CCR2 interaction (Homo sapiens, UniProt Q9BW27); experiment: HTRF FROUNT-CCR2 interaction assay; assay type: binding; details: HTRF
T3 construct: GST-fused FROUNT (FNT-C)
T3 sequence (Q9BW27 500-656 limits assumed): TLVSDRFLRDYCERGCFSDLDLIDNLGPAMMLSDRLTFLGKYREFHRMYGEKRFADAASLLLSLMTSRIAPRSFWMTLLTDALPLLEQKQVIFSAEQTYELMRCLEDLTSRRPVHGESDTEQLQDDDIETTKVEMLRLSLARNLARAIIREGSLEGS

[9] = tested on: ALDH; experiment: ALDH activity assay (ALDEFLUOR); assay type: cell-based, human; details: THP-1 cells, 33 µM, 30 min
Method: THP-1 cells were incubated for 30 min with medium containing DMSO or inhibitors at the concentration of 33 μM then washed and incubated with ALDEFLUOR reagent ([…] Technologies) in assay buffer according to the manufacturer’s instruction. Fluorescence derived from substrate metabolized by cellular ALDH were measured by Gallios cytometer.

[10] = tested on: peritoneal macrophages; experiment: CCL2-induced pseudopodia protrusion of macrophages; assay type: cell-based, mice; details: 25 µM, 1 h pre-incubation
Method: Peritoneal macrophages were isolated from mice, seeded in the 8-well glass-based dishes (Life Technologies) and incubated overnight at 37 °C to allow the cells to adhere. After serum starvation for 6 h, cells were stimulated with chemokine at a concentration of 100 ng mL^–1, then fixed with 4% paraformaldehyde (Wako) and permeabilized with 0.1% Triton X-100 (Wako) in PBS, followed by staining with phalloidin conjugated with Alexa Fluor 594 (Life Technologies). […] Tumor macrophages were isolated from collagenase digestion of tumor tissue as attached cells by washing non-adherent cells away and further culturing them in DMEM containing 10 nM M-CSF (BD Biosciences) and 10% serum. After co-culture with LLC tumor cells, confocal images were obtained using an SP5 confocal microscope (Leica Microsystems). Cells were classified as lamellipodial/round-shaped or filopodial based on their morphology and the ratio of each type in the visual field determined.

[11] = tested on: monocyte (CD11b+Gr-1-Ly-6C+) chemotaxis to CCL2; experiment: Flow cytometry-based chemotaxis assay; assay type: cell-based, mice; details: 20 µM wortmannin pre-incubation
Method: Bone marrow cells were mechanically flushed from the femurs and tibias of Frount-floxed mice and FROUNT-cKO mice. After incubation in ammonium chloride to lyse red blood cells, nucleated cells were incubated with the following antibodies: PE-conjugated Gr-1 (clone RB6-8C5, dilution 1:400, Cat 553128), Pacific blue-conjugated Ly-6C ([…], dilution 1:400, Cat 128014), and allophycocyanin-conjugated CD11b (clone M1/70, dilution 1:400, Cat 101212). Cells were washed and adjusted to 2 × 10^7 cells mL^−1 in chemotaxis buffer. Cells were pre-incubated with 20 μM wortmannin before the assay as necessary. The chemokines murine CCL2 (Peprotech) were added to the lower chamber and 25 μL of cell suspension was added to the upper chamber of a 5-μm pore-sized chemoTX plate. After incubation at 37 °C under 5% CO2 atmosphere for 90 min, migrated cells were collected and cell populations were determined by surface expression of stained antibody in each population using a Gallios flow cytometer (Beckman coulter). Data are expressed as a migration index (number of migrated cells in the presence of chemoattractant divided by the cell number in the absence of chemokine).

Row | SMILES | in vitro growth [1] | in vitro growth [2] | viability [3] | viability [4] | further results
1 | O=c1[nH]cc(F)c(=O)[nH]1 [5FU] | affected | affected | affected | affected | –
2 | CCN(CC)C(=S)S [DDC, sodium diethyldithiocarbamate] | – | – | – | – | chemical shift perturbations in CRBD [5]: no significant perturbation; binding to FROUNT protein [6]: did not bind
3 | NC(=O)Nc1sc(-c2ccc(F)cc2)cc1C(N)=O [IKK-IV] | affected | affected | affected | affected | –
4 | N#CN [cyanamide] | – | – | – | – | cellular chemotaxis [7]: did not block; inhibition of FROUNT-CCR2 interaction [8]: did not block; ALDH inhibition activity [9]: more potently than DSF
5 | COC[C@H]1OC(=O)c2coc3c2[C@@]1(C)C1=C(C3=O)[C@@H]2CCC(=O)[C@@]2(C)C[C@H]1OC(C)=O [wortmannin] | – | – | – | – | CCL2-induced pseudopodia protrusion [10]: inhibition; migration in response to CCL2 stimulation [11]: inhibited
